{"source": "patent US10196357B2", "about": "“Biaryl compositions and methods for modulating a kinase cascade” (Athenex, Inc., priority 2007, dated 2019)", "key": {"[1]": {"assay": "plasma exposure after oral administration", "assay_type": "in vivo, male CD-1 mice", "conditions": "Male CD-1 mice", "method": "Plasma concentrations were measured in mice after oral administration. All doses were formulated in purified water. Four groups of male CD-1 mice were dosed after an overnight fast and fed 4 hours post-dose. Dosing was as follows:\nProtein was precipitated with 0.25 mL acetonitrile for plasma, 0.25 mL for brain. After centrifugation, supernatant was directly injected into an LC/MS system. The limit of quantitation was 1 ng/mL using a 50 μL aliquot for plasma and a 50 μL, aliquot for brain. The standard curve was 1 to 1,000 ng/mL for both plasma and brain. HPLC conditions were as follows:\nHPLC System: Shimadzu SCL-10 System\n• Analytical Column: Aquasil C18 5 μm 100×2 mm column. • Column Temperature: Ambient temperature • Autosampler Temperature: Ambient temperature • Mobile Phase A) 10 mM Ammonium formate in water (pH 4). • B) Acetonitrile. • Flow Rate: 0.6 mL/min • Injection Volume: 2 μL • Gradient:\n• Mass Spectrometry Conditions were as follows: • Instrument: ABI Sciex API 4000 • Mode: ESI+ • Experiment: MRM (multiple reaction monitoring) • Transitions: KX2-391: m/z 432.4→114.2 (Rt=3.11 minute) • KX2-361: m/z 406.1→253.2 (Rt=3.33 minute)"}, "[2]": {"assay": "body weight in GL261 glioma survival study", "assay_type": "in vivo", "conditions": "C57BL/6 mice", "method": "A brain tumor mouse xenograft study was conducted comparing KX2-361 and KX2-391 (KXO1) to Temodar®. The studies were conducted in C57BL/6 mice. GL261 glioma cells (1×10^5 in 5 μl DMEM) were implanted intracranial coordinates: bregma, lateral 2.0 mm, anterior 1.2 mm, 3.0 mm depth dura. Treatment was initiated 3 days post implantation. The groups were as follows (all doses in 100 μl H2O):\nFIGS. 49A-E show the weight gain in each of the C57BL/6 mice in the different treatment groups. The average weight at endpoint for each of the treatment groups is shown below in Table 30. FIG. 50 is a graph showing the average weights over a 40-day period for each of the treatment groups."}, "769-P": {"tested_on": "769-P", "assay": "renal tumor cell growth inhibition, 769-P", "assay_type": "cell-based, Human", "conditions": "renal cell adenocarcinoma", "method": "These GI50s were determined using standard tumor growth inhibition assays, similar to those described in detail in this Example 7."}, "K562 (CML)": {"tested_on": "K562 (CML)", "assay": "growth inhibition (BrdU), K562", "assay_type": "cell-based, Human", "conditions": "K562 (CML)", "excerpt": "(§1) Growth Inhibition. […] T1 values≤T0 values were designated as T, cytotoxicity."}, "MDA231 (Breast)": {"tested_on": "MDA231 (Breast)", "assay": "growth inhibition (BrdU), MDA231", "assay_type": "cell-based, Human", "conditions": "MDA231 (Breast) cells", "excerpt": "as §1"}, "L3.6pl cells": {"tested_on": "L3.6pl cells", "assay": "growth inhibition (BrdU), L3.6pl", "assay_type": "cell-based, human", "conditions": "L3.6pl (Pancreas) cells, single agent", "excerpt": "L3.6pl cells are previously described in Trevino et al. Am J Pathol."}, "FAK Y397": {"tested_on": "FAK Y397", "assay": "FAK autophosphorylation in cells", "assay_type": "cell-based", "conditions": "c-Src527F/NIH3T3 cells", "method": "HT29 (colon cancer) and c-Src527F/NIH-3T3 (Src transformed) cell lines were treated with KX2-391 or with AstraZeneca's ATP competitive Src inhibitor AZ28. AZ28 serves as a positive comparator to show what a validated Src inhibitor should do in these assays. After treatment with compound, cells were lysed, subjected to PAGE and probed with a battery of antibodies. […] In addition, off-target protein phosphorylation was also investigated. Further, induction of apoptosis was evaluated via Caspase 3 cleavage. Multiple doses of each compound were tested because the trends in response to increasing drug concentration are the most reliable indicator of activity.\nThe same range of multiples of the GI50 for AZ28 in these two cell lines was run as a comparison.\nFAK Y397 is mainly a FAK autophosphorylation site and only a poor Src transphorylation site. AZ28 is […] a potent FAK inhibitor (see isolated enzyme data in Table 8). However, no inhibition of FAK autophosphorylation in c-Src527F/NIH3T3 cells is seen with KX-391."}, "SKOV-3 (Ovarian)": {"tested_on": "SKOV-3 (Ovarian)", "assay": "growth inhibition (BrdU), SKOV-3", "assay_type": "cell-based, Human", "conditions": "SKOV-3 (Ovarian) cells", "excerpt": "as §1"}, "PC3-MM2 (Prostate)": {"tested_on": "PC3-MM2 (Prostate)", "assay": "growth inhibition, PC3-MM2", "assay_type": "cell-based, Human", "conditions": "PC3-MM2 (Prostate) cells"}, "U87": {"tested_on": "U87", "assay": "brain tumor cell growth inhibition, U87", "assay_type": "cell-based, Human", "conditions": "U87, glioblastoma; astrocytoma; read-out: IC50 (title: GI50)"}, "[3]": {"tested_on": "lung cancer cell line A549", "assay": "tumor growth inhibition, A549", "assay_type": "cell-based, Human", "conditions": "A549 (Lung) cells", "excerpt": "as §1"}, "H460": {"tested_on": "H460", "assay": "MTT growth inhibition, Dasatinib-resistant H460", "conditions": "H460, 8.0×10^3 cells/well, […] FBS, 78 Hr"}, "JAK1 Y1022/1023": {"tested_on": "JAK1 Y1022/1023", "assay": "whole cell phosphorylation, JAK1", "assay_type": "cell-based", "conditions": "whole cells"}, "[4]": {"conditions": "single PO dose 10 mg/kg (Group 3), 0 hr"}, "[5]": {"conditions": "single PO dose 10 mg/kg (Group 3), 0.5 hr"}, "[6]": {"conditions": "single PO dose 10 mg/kg (Group 3), 1 hr"}, "[7]": {"conditions": "single PO dose 10 mg/kg (Group 3), 2 hr"}, "[8]": {"conditions": "single PO dose 10 mg/kg (Group 3), 5 hr"}, "[9]": {"conditions": "single PO dose 50 mg/kg (Group 4), 0 hr"}, "[10]": {"conditions": "single PO dose 50 mg/kg (Group 4), 0.5 hr"}, "[11]": {"conditions": "single PO dose 50 mg/kg (Group 4), 1 hr"}, "[12]": {"conditions": "single PO dose 50 mg/kg (Group 4), 2 hr"}, "[13]": {"conditions": "single PO dose 50 mg/kg (Group 4), 5 hr"}}, "note": "“And” between values parts separate entries of the source, which are not always exact repeats. Equal values may be shown once.", "data": [{"smiles": "O=C(Cc1ccc(-c2ccc(N3CCOCC3)cc2)cn1)NCc1cccc(F)c1", "note": "[KX2-361]", "values": [{"measurement": "KX2-361 Plasma Concentrations, Group A", "setting": "[1]; [4]", "value": "BLQ (BLQ: Below Limit of Quantitation (1 ng/mL))"}, {"measurement": "KX2-361 Plasma Concentrations, Group B", "setting": "[1]; [4]", "value": "BLQ (BLQ: Below Limit of Quantitation (1 ng/mL))"}, {"measurement": "KX2-361 Plasma Concentrations, Group C", "setting": "[1]; [4]", "value": "BLQ (BLQ: Below Limit of Quantitation (1 ng/mL))"}, {"measurement": "KX2-361 Plasma Concentrations, Group A", "setting": "[1]; [5]", "value": 65.93, "unit": "ng/mL"}, {"measurement": "KX2-361 Plasma Concentrations, Group B", "setting": "[1]; [5]", "value": 217.56, "unit": "ng/mL"}, {"measurement": "KX2-361 Plasma Concentrations, Group C", "setting": "[1]; [5]", "value": 159.53, "unit": "ng/mL"}, {"measurement": "KX2-361 Plasma Concentrations, Group A", "setting": "[1]; [6]", "value": 284.09, "unit": "ng/mL"}, {"measurement": "KX2-361 Plasma Concentrations, Group B", "setting": "[1]; [6]", "value": 596.31, "unit": "ng/mL"}, {"measurement": "KX2-361 Plasma Concentrations, Group C", "setting": "[1]; [6]", "value": 398.35, "unit": "ng/mL"}, {"measurement": "KX2-361 Plasma Concentrations, Group A", "setting": "[1]; [7]", "value": 153.07, "unit": "ng/mL"}, {"measurement": "KX2-361 Plasma Concentrations, Group B", "setting": "[1]; [7]", "value": 118.96, "unit": "ng/mL"}, {"measurement": "KX2-361 Plasma Concentrations, Group C", "setting": "[1]; [7]", "value": 342.45, "unit": "ng/mL"}, {"measurement": "KX2-361 Plasma Concentrations, Group A", "setting": "[1]; [8]", "value": 2.63, "unit": "ng/mL"}, {"measurement": "KX2-361 Plasma Concentrations, Group B", "setting": "[1]; [8]", "value": 64.15, "unit": "ng/mL"}, {"measurement": "KX2-361 Plasma Concentrations, Group C", "setting": "[1]; [8]", "value": 53.18, "unit": "ng/mL"}, {"measurement": "KX2-361 Plasma Concentrations, Group A", "setting": "[1]; [9]", "value": "BLQ (BLQ: Below Limit of Quantitation (1 ng/mL))"}, {"measurement": "KX2-361 Plasma Concentrations, Group B", "setting": "[1]; [9]", "value": "BLQ (BLQ: Below Limit of Quantitation (1 ng/mL))"}, {"measurement": "KX2-361 Plasma Concentrations, Group C", "setting": "[1]; [9]", "value": "BLQ (BLQ: Below Limit of Quantitation (1 ng/mL))"}, {"measurement": "KX2-361 Plasma Concentrations, Group B", "setting": "[1]; [10]", "value": 2316.91, "unit": "ng/mL"}, {"measurement": "KX2-361 Plasma Concentrations, Group C", "setting": "[1]; [10]", "value": 1587.18, "unit": "ng/mL"}, {"measurement": "KX2-361 Plasma Concentrations, Group A", "setting": "[1]; [11]", "value": 1805.19, "unit": "ng/mL"}, {"measurement": "KX2-361 Plasma Concentrations, Group B", "setting": "[1]; [11]", "value": 969.48, "unit": "ng/mL"}, {"measurement": "KX2-361 Plasma Concentrations, Group C", "setting": "[1]; [11]", "value": 3635.91, "unit": "ng/mL"}, {"measurement": "KX2-361 Plasma Concentrations, Group A", "setting": "[1]; [12]", "value": 475.13, "unit": "ng/mL"}, {"measurement": "KX2-361 Plasma Concentrations, Group B", "setting": "[1]; [12]", "value": 1710.13, "unit": "ng/mL"}, {"measurement": "KX2-361 Plasma Concentrations, Group C", "setting": "[1]; [12]", "value": 1709.02, "unit": "ng/mL"}, {"measurement": "KX2-361 Plasma Concentrations, Group A", "setting": "[1]; [13]", "value": 138.53, "unit": "ng/mL"}, {"measurement": "KX2-361 Plasma Concentrations, Group B", "setting": "[1]; [13]", "value": 252.81, "unit": "ng/mL"}, {"measurement": "KX2-361 Plasma Concentrations, Group C", "setting": "[1]; [13]", "value": 298.99, "unit": "ng/mL"}, {"measurement": "Average weight at endpoint", "setting": "[2]; 15 mg/kg", "value": 16.9, "unit": "g"}, {"measurement": "Average weight at endpoint", "setting": "[2]; 30 mg/kg", "value": 15.0, "unit": "g"}]}, {"smiles": "O=C(Cc1ccc(-c2ccc(OCCN3CCOCC3)cc2)cn1)NCc1ccccc1", "note": "[KXO1]", "values": [{"measurement": "GI50", "setting": "769-P", "value": 45, "unit": "nM"}, {"measurement": "GI50", "setting": "K562 (CML)", "value": 13, "unit": "nM"}, {"measurement": "GI50", "setting": "MDA231 (Breast)", "value": 20, "unit": "nM"}, {"measurement": "GI50", "setting": "L3.6pl cells", "value": "25 nM and 32 nM"}, {"measurement": "FAK Y397 autophosphorylation", "setting": "FAK Y397", "value": "no inhibition"}, {"measurement": "GI50", "setting": "SKOV-3 (Ovarian)", "value": 9.8, "unit": "nM"}, {"measurement": "GI50", "setting": "PC3-MM2 (Prostate)", "value": 8.9, "unit": "nM"}, {"measurement": "IC50", "setting": "U87", "value": 33.1, "unit": "nM"}, {"measurement": "GI50", "setting": "[3]", "value": "9.4 nM and 13 nM"}, {"measurement": "IC50", "setting": "H460", "value": 51, "unit": "nM"}, {"measurement": "IC80", "setting": "H460", "value": 105, "unit": "nM"}, {"measurement": "IC90", "setting": "H460", "value": 162, "unit": "nM"}, {"measurement": "phosphorylation of JAK1 Y1022/1023", "setting": "JAK1 Y1022/1023", "value": "not inhibited"}]}]}
